Values quoted from earlier work, collected in US20090298802A1, “Pharmaceutical Compositions” (priority 2005, published 2009).

Key:
[1] = tested on: patients with COPD; settings: 516 patients with COPD, after 26 weeks of dosing, versus placebo recipients
[2] = tested on: guinea-pig model of COPD; settings: COPD induced by cigarette smoke exposure

| Compound | tolerability profile [1] | neutrophilia [2] | specific airway resistance [2] |
| --- | --- | --- | --- |
| O=C(Nc1c(Cl)cncc1Cl)c1ccc(OC(F)F)c(OCC2CC2)c1 [Roflumilast] | equivalent to that seen in placebo recipients | – | – |
| CCOc1ccc(-c2nc(-c3cccc(C(=O)O)n3)cs2)cc1OCC [Tetomilast] | – | improvements | improvements |
